Laboratory results reported in ChEMBL document CHEMBL4673333, “Bioactive Limonoids and Triterpenoids from the Fruits of Melia azedarach” (J Nat Prod, 2020).
Activity calls are given as the source filed them. The rule behind the calls is not given here.

Legend:
Format in all cases: functional, cell-based
A549 = assay: Cytotoxicity against human A549 cells assessed as reduction in cell viability by CCK8 assay
HCT-116 = assay: Cytotoxicity against human HCT-116 cells assessed as reduction in cell viability by CCK8 assay
U-251 = assay: Cytotoxicity against human U-251 cells assessed as reduction in cell viability by CCK8 assay
HT-29 = assay: Cytotoxicity against human HT-29 cells assessed as reduction in cell viability by CCK8 assay
Bel-7402 = assay: Cytotoxicity against human Bel-7402 cells assessed as reduction in cell viability by CCK8 assay

| SMILES | Activity (A549) | Activity (HCT-116) | Activity (U-251) | Activity (HT-29) | Activity (Bel-7402) | IC50 (HCT-116) |
| --- | --- | --- | --- | --- | --- | --- |
| C/C=C(\C)C(=O)O[C@@H]1[C@@H]2OC[C@]3(C)[C@H](OC(C)=O)C[C@H](OC(C)=O)[C@@](C)([C@@H]23)[C@@H](CC(=O)OC)[C@]1(C)C1=C(C)[C@H](c2ccoc2)C[C@@H]1OC | inactive | inactive | inactive | inactive | inactive | – |
| COC(=O)C[C@H]1[C@]2(C)C3=C(C)[C@H](c4ccoc4)C[C@H]3O[C@@H]2[C@H](OC(C)=O)[C@H]2[C@](C)(C=O)[C@H](O)C[C@H](OC(=O)c3ccccc3)[C@@]21C | inactive | inactive | inactive | inactive | inactive | – |
| C/C=C(\C)C(=O)O[C@H]1C[C@@H](OC(=O)c2ccccc2)[C@@]2(C)CO[C@H]3[C@H]4O[C@@H]5C[C@@H](c6ccoc6)C(C)=C5[C@@]4(C)[C@H](CC(=O)OC)[C@]1(C)[C@@H]32 | inactive | inactive | inactive | inactive | inactive | – |
| CC(=O)O[C@H](C(=O)C=C(C)C)[C@H](C)[C@@H]1CC[C@]2(C)C3=CC[C@H]4C(C)(C)C(=O)CC[C@]4(C)[C@H]3C[C@@H](O)[C@@]12C | inactive | – | inactive | inactive | inactive | 5.9 µM |
| CO[C@H]1O[C@@H]([C@H](O)C(C)(C)O)C[C@H]1[C@@H]1CC[C@]2(C)C3=CC[C@H]4C(C)(C)[C@@H](O)CC[C@]4(C)[C@H]3CC[C@@]12C | inactive | inactive | inactive | inactive | inactive | – |
| CO[C@@H]1O[C@@H]([C@H](O)C(C)(C)O)C[C@H]1[C@@H]1CC[C@]2(C)C3=CC[C@H]4C(C)(C)[C@@H](O)CC[C@]4(C)[C@H]3CC[C@@]12C | inactive | inactive | inactive | inactive | inactive | – |
| C/C=C(\C)C(=O)O[C@H]1C[C@@H](O)[C@@](C)(C=O)[C@@H]2[C@@H](OC(C)=O)[C@H]3O[C@@H]4C[C@@H](c5ccoc5)C(C)=C4[C@@]3(C)[C@H](CC(=O)OC)[C@@]12C | inactive | inactive | inactive | inactive | inactive | – |
| CC(C)=CCC[C@H]1C(=O)O[C@H]2C[C@]3(C)C4=CC(=O)[C@H]5C(C)(C)[C@@H](O)CC[C@]5(C)[C@H]4CC[C@@]3(C)[C@@H]21 | inactive | inactive | inactive | inactive | inactive | – |
| COC(=O)C[C@H]1[C@]2(C)C3=C(C)[C@H](c4ccoc4)C[C@H]3O[C@@H]2[C@@H]2OC[C@]3(C)[C@H](OC(=O)c4ccccc4)C[C@H](OC(=O)/C=C/c4ccccc4)[C@@]1(C)[C@@H]23 | inactive | inactive | inactive | inactive | inactive | – |
| CC(C)=CCC[C@@H](C(=O)O)[C@@H]1[C@@H](O)C[C@]2(C)C3=CC[C@H]4C(C)(C)[C@@H](O)CC[C@]4(C)[C@H]3C[C@@H](O)[C@@]12C | inactive | inactive | inactive | inactive | inactive | – |
| CC(=O)O[C@H]1[C@@H](OC(=O)c2ccccc2)[C@@]2(C)C3=CC[C@@H](c4ccoc4)[C@]3(C)[C@@H](OC(C)=O)C[C@@H]2[C@@]2(C)[C@@H](O)C[C@@H](OC(C)=O)[C@](C)(C=O)[C@H]12 | inactive | inactive | inactive | inactive | inactive | – |
| COC(=O)C[C@H]1[C@]2(C)C3=C(C)[C@H](c4ccoc4)C[C@H]3O[C@@H]2[C@@H]2OC[C@]3(C)[C@H](OC(=O)/C=C/c4ccccc4)C[C@H](OC(=O)c4ccccc4)[C@@]1(C)[C@@H]23 | inactive | inactive | inactive | inactive | inactive | – |
| COC(=O)C[C@H]1[C@](C)(C2=C(C)[C@H](c3ccoc3)C[C@@H]2OC(C)=O)[C@H](OC(=O)c2ccccc2)[C@@H]2OC[C@]3(C)[C@H](OC(C)=O)C[C@H](OC(C)=O)[C@@]1(C)[C@@H]23 | inactive | inactive | inactive | inactive | inactive | – |
| C/C=C(\C)C(=O)O[C@@H]1C[C@H](OC(=O)/C=C/c2ccccc2)[C@@]2(C)[C@H]3[C@@H](OC[C@]13C)[C@H]1O[C@@H]3C[C@@H](c4ccoc4)C(C)=C3[C@@]1(C)[C@@H]2CC(=O)OC | inactive | inactive | inactive | inactive | inactive | – |
| C/C=C(\C)C(=O)O[C@@H]1[C@@H]2OC[C@]3(C)[C@H](OC(C)=O)C[C@H](OC(C)=O)[C@@](C)([C@@H]23)[C@@H](CC(=O)OC)[C@]1(C)C1=C(C)[C@H](c2ccoc2)C[C@H]1OC | inactive | inactive | inactive | inactive | inactive | – |
| COC(=O)C[C@H]1[C@](C)(C2=C(C)[C@H](c3ccoc3)C[C@H]2OC)[C@H](OC(=O)c2ccccc2)[C@@H]2OC[C@]3(C)[C@H](OC(C)=O)C[C@H](OC(C)=O)[C@@]1(C)[C@@H]23 | inactive | inactive | inactive | inactive | inactive | – |
| COC(=O)C[C@H]1[C@](C)(C2=C(C)[C@H](c3ccoc3)C[C@@H]2OC)[C@H](OC(=O)c2ccccc2)[C@@H]2OC[C@]3(C)[C@H](OC(C)=O)C[C@H](OC(C)=O)[C@@]1(C)[C@@H]23 | inactive | inactive | inactive | inactive | inactive | – |
| CC(=O)O[C@H]1C[C@@H](OC(C)=O)[C@@]2(C)CO[C@H]3[C@@H](OC(=O)c4ccccc4)[C@@]4(C)C5=C(C)[C@H](c6ccoc6)C[C@@H]5O[C@@H](O)C[C@@H]4[C@]1(C)[C@@H]32 | inactive | inactive | inactive | inactive | inactive | – |
| C=C(C)C(=O)O[C@@H]1[C@@H]2OC[C@]3(C)[C@H](OC(C)=O)C[C@H](OC(C)=O)[C@@](C)([C@@H]23)[C@@H](CC(=O)OC)[C@]1(C)C1=C(C)[C@H](c2ccoc2)C[C@@H]1OC | inactive | inactive | inactive | inactive | inactive | – |
| COC(=O)C[C@H]1[C@]2(C)C3=C(C)[C@H](c4ccoc4)C[C@H]3O[C@@H]2[C@@H]2OC[C@]3(C)[C@H](OC(=O)c4ccccc4)C[C@H](OC(=O)c4ccccc4)[C@@]1(C)[C@@H]23 | inactive | – | inactive | inactive | inactive | 0.3 µM |
| C/C=C(\C)C(=O)O[C@@H]1[C@@H]2OC[C@]3(C)[C@H](OC(C)=O)C[C@H](OC(C)=O)[C@@](C)([C@@H]23)[C@H]2C[C@H](O)O[C@H]3C[C@@H](c4ccoc4)C(C)=C3[C@]12C | inactive | inactive | inactive | inactive | inactive | – |
